In patent publication US6632797B2, “Method of treating angiogenesis” (priority 1996, dated 2003):

Key:
[1] = Binding constants to the polyamine spermine; format: physicochemical; conditions: 1:1:5 complex; 0.1 M N-tetramethylbromide at 25° C.
Procedure: The interaction between a polyamine, spermine and different triphosphorylated compounds were investigated in order to determin the binding constants. Spermine is a basic polyamine comprising domains of similar basicity to basic domains in growth factors. Spermine and the different phosphorylated compounds forms different complexes and the 1:1:5 complex was used as the complex for determination of binding constants.
The following binding constants, log Ks was determined in 0.1 M N-tetramethylbromide at 25° C.: […]

[2] = system: phosphatidyl inositol 3′ kinase (PI 3′-kinase); assay: Interstitial fluid pressure (PIF) in rat hind paw, wortmannin-induced decrease; format: in vivo, Wistar Möller rats; conditions: 5 μg in 0.1 ml intravenous before wortmannin
Description: The enzyme phosphatidyl inositol 3′ kinase (PI 3′-kinase) is implicated in a number of growth factor induced responses such as mitogenesis, chemotaxis, membrane ruffling and the balance between osteoclasts and osteoblasts. Furthermore it is known that inactivation of PI 3′ kinase leads to increased oedema formation expressed as a decrease of interstitial fluid pressure (PIF) in animal models.
An inhibitor of PI 3′ kinase such as wortmannin renders a decrease of PIF as a consequence of inactivation of PI 3′ kinase.
The measurements were performed on female Wistar Möller rats (200-250 g), anesthetized with pentobarbital (50 mg/kg i.p.).
PIF was measured on the dorsal side of the hind paw with sharpened glass capillarier (tip diameter 2-7 μm) filled with 0.5 M NaCl coloured with Evans Blue and connected to a serve-controlled counter pressure system. The punctures were performed through intact skin using a stereomicroscope. The pipette-tip was located 0.3-0.5 mm below the skin. Pressure measurements were made 2.5-3.0 mm from the center of injection. The normal transcapillary pressure gradient is about 0.5 mm Hg.
Three sets of experiments were performed with six animals in each set.
In the first set of experiment the vehicle for wortmannin, DMSO diluted in saline, 5 μl, was injected subdermally using a chromatography syringe. […]

Wish tumour cells = assay: Wish tumour cell-induced bone tumours on the calvaria of nude mice; format: in vivo; design: key: +: small and non-severe tumours; ++++: large and severe tumours; conditions: 120 mg/kg/day osmotic minipump for 14 days; individual animals
Procedure: The injection of a specific cell-line Wish tumour cells, induces proliferation of osteoblasts on the calvaria of nude mice leading to bone tumours.
Wish cells (American Type Culture Collection^R, ATCC (R) F-12784 25 CCL WITH×01166) were used for inocculation. Cells were grown on MEM supplemented with 15% FCS, 2% glutamine and streptomycin-penicillin/garamycin. Cells were grown as a monolayer and trypsinised and split in the ratio 1:3 to 1:4. All together 360 million cells were harvested and suspended in 7 ml for a final concentration of approximately 10 million cells per 0.2 ml.
The osmotic pumps with IP3 and saline respectively were implanted on the same day as the inocculation of Wish-cells were performed.
A 27 gauge needle on a 1 ml syringe was used for the injections of Wish-cells. The injection was done under the skin of the calvaria scratching the periosteum.
At day 13 all animals were given an intraperiotoneal injection of demeclocycline (Sigma Chemicals Co. St Louis). All animals were investigated regarding the occurrence of and size of tumours. The size of tumours were measured according to a scale from
+ which represents small and non-severe tumours to
++++ which represents large and severe tumours.

scarr formation on skin = assay: Scar formation on scratches of the epidermis of a human hand, topical application; format: in vivo; conditions: topical solution, observation over 10 days
Procedure: To two of the scratches a solution comprising IP3 was applied topically while two of the scratches served as controls. Occular investigation was performed every day over a period of 10 days.

[3] = target: bovine brain clathrin assembly protein-2 (AP-2); assay: Binding to clathrin assembly protein-2, competition with tritiated inositoltetraphosphate; conditions: competition with 10 nM tritiated inositoltetraphosphate, on ice, ten minutes
Procedure: The binding assay was done in a total volume of 100 μl buffer containing […] Na HEPES pH 7.1, […], […], 5 mg/ml IgG, 10 nM tritiated inositoltetraphosphate and 1.46 μg of AP-2. […] Incubation was carried out on ice for a period of ten minutes and then the protein was co-precipitated with IgG using 5% (w/w) polyethylene glycol and pelleted by centrifugation at […] for 10 minutes. The supernatants were aspirated, the pellets were wasted with 0.2 ml water and resuspended in 0.2 ml water and transferred to scintillation vials. 5.0 ml of cyto scint fluid was added to each vial and the radioactivity was measured.

[4] = system: Nerve growth factors (NGFA from Vipera lebetina Venom and NGFB from Mouse Submaxillary glands); assay: Interaction between NGF and radioactive IP3, co-elution on Sephadex G-25 / Heparin-Sepharose columns; format: binding; conditions: co-elution from Sephadex G-25, 50 mM Hepes pH 7.4
Procedure: The mixture was incubated for 1 hour at 4° C.
This type of column fractionate substances according to molecular weight.
The incubate was loaded on the column and was eluted with 50 mM Hepes in fractions of 0.4 ml each.
To further determine the interaction, the fractions with radioactivity and UV-absorbance were loaded on a Heparin-Sepharose CL-6B column (Pharmacia Biotech, Sweden) (volume 25 ml, height 20 cm). […] Elution was performed with 50 mM Hepes, pH 7.4 and each fraction of 1 ml was collected for determination of radioactivity and UV absorbance. A peak with radioactivity but without UV absorption was loaded on a similar Sephadex G-25 column as described above and was eluted with the same type of buffer. Maximum radioactivity was obtained in fraction number 13 i.e. in this case the substance with radioactivity was more retained on the column.

Which “log Ks” value [1] does the source give for `O=P(O)(O)OC1C(O)C(O)C(O)C(OP(=O)(O)O)C1OP(=O)(O)O` [IP3, D-myo-inositol-1,2,6-trisphosphate] here?
The value was 5.16.

And the “effect of pretreatment on wortmannin-induced decrease in PIF” value [2]?
The value was “abolished decrease in PIF”.

And the Severeness of tumours (Wish tumour cells)?
Its Severeness of tumours is “++++”.

And the “scarr formation compared to the control” value (scarr formation on skin)?
Its value is “formed scarr in a delayed manner”.

What about the IC50 [3] of the same compound?
Its IC50 is 600 ± 100 nM.

What about the “interaction between NGF and IP3” value [4] of the same compound?
The value was “strong interaction”.
